Patent US12410152B2, “Oxazole and thioazole-type cullin ring ubiquitin ligase compounds and uses thereof” (Proxygen GmbH, priority 2019, dated 2025)

Target: T1, CDK12:CCNK and DDB1:CUL4B (Homo sapiens, UniProt Q16531+Q9NYV4)
T1 construct: expressed in transfected cells; host or cells: 293T (HEK) cells, transient transfection
Test: Biotin proximity labeling with miniTurbo in live cells
Type: cell-based
Conditions: HEK/293T cells with DDB1- or CDK12-mTurbo fusions, carfilzomib 10 μM
Procedure: The direct, drug-induced association of CDK12:CCNK and DDB1:CUL4B was further assessed in a cellular assay based on enzyme-catalyzed proximity labeling via the efficient biotin ligase miniTurbo (mTurbo) (Branon, T. C. et al. Efficient proximity labeling in living cells and organisms with TurboID. Nat Biotechnol 36, 880-887, doi:10.1038/nbt.4201 (2018)) was performed. This assay enables recording dynamic changes in molecular proximity of an mTurbo-tagged bait protein by streptavidin purification of covalently biotinylated, proximal proteins. For this purpose, c-terminally tagged DDB1, or CDK12 mTurbo-fusions were transiently expressed in HEK cells. Cells were treated for one hour with C020772.1 or vehicle (DMSO) control, including a 30 minute biotin labeling pulse (FIG. 20 g, h). […] Vice-versa, DDB1 was only identified as CDK12 interactor after drug treatment, but was not purified after vehicle-control treatment (FIG. 20 h). […]
One 10-cm culture plate of 293T cells (70%-80% confluent) was transfected with 2 μg of pLenti_DDB1_miniTurbo_V5 or pLenti_CDK12_miniTurbo_V5 using Lipofectamine 2000 (Invitrogen, 11668019). […] Eluates were analyzed by WB. Quantification was performed with ImageJ.

T1 sequence (Q9NYV4 whole entry): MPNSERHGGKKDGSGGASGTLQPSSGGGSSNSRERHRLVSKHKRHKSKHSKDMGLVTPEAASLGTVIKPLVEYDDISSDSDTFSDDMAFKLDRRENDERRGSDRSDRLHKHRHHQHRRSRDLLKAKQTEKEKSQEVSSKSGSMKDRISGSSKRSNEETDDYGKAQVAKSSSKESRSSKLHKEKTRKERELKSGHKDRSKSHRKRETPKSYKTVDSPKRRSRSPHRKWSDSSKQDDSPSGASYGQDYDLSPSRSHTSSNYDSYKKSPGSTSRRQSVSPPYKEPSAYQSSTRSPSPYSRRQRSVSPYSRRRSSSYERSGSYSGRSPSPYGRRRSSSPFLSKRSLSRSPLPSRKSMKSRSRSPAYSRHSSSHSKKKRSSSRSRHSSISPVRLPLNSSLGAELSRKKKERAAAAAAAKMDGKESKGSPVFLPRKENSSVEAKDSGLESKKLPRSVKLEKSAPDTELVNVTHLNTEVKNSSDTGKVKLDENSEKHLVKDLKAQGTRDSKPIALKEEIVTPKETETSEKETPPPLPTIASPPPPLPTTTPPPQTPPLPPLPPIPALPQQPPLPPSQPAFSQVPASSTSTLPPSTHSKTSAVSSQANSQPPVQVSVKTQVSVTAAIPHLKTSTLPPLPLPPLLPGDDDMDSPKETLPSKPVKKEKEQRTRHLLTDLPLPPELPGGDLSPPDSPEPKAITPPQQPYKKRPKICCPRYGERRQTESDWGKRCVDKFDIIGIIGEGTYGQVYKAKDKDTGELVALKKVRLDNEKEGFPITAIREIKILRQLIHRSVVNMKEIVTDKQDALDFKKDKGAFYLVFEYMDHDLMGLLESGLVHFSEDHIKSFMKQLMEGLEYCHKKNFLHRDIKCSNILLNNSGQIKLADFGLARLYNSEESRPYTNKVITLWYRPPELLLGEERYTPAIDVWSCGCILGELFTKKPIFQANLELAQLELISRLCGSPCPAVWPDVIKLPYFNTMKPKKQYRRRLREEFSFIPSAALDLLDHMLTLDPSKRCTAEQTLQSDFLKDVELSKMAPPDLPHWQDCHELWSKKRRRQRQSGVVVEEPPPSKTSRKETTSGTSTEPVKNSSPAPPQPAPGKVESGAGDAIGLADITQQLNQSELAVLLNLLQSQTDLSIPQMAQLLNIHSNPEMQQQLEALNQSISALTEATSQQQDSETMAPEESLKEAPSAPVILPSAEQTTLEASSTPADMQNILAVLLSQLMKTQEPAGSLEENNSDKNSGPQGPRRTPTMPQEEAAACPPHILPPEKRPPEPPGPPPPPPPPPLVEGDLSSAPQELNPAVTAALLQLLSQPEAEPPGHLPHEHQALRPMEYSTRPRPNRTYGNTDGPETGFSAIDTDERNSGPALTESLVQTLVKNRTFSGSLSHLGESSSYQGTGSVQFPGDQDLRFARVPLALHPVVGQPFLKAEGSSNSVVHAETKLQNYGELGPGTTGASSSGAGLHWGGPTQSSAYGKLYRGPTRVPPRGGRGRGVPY
T1 sequence (O75909 whole entry partner): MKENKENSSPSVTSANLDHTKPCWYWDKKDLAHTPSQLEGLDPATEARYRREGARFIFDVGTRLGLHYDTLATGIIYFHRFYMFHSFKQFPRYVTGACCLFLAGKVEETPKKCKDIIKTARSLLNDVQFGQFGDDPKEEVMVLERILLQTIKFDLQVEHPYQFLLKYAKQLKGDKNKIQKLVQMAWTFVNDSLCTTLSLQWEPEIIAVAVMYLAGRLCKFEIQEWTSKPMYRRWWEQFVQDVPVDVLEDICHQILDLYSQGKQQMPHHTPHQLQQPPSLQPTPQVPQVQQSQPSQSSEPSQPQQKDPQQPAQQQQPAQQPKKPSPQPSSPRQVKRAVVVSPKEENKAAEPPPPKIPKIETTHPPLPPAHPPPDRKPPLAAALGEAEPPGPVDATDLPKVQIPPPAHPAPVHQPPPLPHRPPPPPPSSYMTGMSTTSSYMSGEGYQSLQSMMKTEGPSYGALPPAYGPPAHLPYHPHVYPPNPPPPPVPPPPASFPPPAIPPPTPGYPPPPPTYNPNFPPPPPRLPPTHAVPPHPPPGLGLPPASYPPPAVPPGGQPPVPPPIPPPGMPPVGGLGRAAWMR
T1 sequence (Q16531 whole entry): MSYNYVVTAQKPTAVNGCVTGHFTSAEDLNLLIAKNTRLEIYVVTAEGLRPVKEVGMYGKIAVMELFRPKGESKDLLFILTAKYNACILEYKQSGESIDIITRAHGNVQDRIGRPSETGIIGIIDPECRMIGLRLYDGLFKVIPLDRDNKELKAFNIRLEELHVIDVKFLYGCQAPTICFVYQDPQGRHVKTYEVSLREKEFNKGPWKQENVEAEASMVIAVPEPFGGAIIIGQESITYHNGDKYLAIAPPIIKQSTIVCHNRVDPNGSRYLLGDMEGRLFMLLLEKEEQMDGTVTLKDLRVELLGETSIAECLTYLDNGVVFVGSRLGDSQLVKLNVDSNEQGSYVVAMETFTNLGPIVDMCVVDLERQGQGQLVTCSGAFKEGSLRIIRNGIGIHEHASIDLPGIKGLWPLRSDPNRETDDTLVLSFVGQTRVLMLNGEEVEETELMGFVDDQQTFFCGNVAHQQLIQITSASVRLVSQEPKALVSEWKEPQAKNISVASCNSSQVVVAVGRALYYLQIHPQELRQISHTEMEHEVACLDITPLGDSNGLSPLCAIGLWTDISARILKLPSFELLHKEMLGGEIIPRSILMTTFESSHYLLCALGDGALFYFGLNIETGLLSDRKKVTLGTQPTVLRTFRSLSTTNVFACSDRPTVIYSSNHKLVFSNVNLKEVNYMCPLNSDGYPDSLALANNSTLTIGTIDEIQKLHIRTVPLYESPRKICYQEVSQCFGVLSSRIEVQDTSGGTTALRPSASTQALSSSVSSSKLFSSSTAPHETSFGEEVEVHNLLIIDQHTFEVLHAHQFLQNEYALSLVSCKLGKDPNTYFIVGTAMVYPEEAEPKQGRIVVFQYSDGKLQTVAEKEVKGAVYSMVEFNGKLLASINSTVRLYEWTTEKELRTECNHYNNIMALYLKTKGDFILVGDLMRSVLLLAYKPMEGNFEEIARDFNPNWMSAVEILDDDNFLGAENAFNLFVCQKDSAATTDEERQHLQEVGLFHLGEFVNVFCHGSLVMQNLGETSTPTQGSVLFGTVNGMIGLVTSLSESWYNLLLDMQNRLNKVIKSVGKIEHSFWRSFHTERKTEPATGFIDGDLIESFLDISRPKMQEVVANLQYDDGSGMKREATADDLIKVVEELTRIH

`O=C(CSc1nnc2c(n1)[nH]c1ccccc12)Nc1ccc(Cl)cn1` [IC020772.1] was tested, and the “drug-induced CDK12-DDB1 proximity (biotin labeling)” value was “CDK12 interactions with DDB1 were exclusively identified in the presence of IC020772.1”.
